Assay results published in paper PMC6199309, “A therapeutic approach to pantothenate kinase associated neurodegeneration” (Nature Communications, 2018).
“Also recorded” adds a separate entry of the source.

Tests used:
DLK = molecular target: T1, DLK (Homo sapiens, UniProt Q12852); experiment: KINOMEscan; format: binding; details: read-out: %Ctrl @ 10000nM
T1 construct: purchased DiscoverX KINOMEscan

ACVRL1 = molecular target: T2, ACVRL1 (Homo sapiens, UniProt P37023); experiment: KINOMEscan; format: binding; details: read-out: %Ctrl @ 10000nM
T2 construct: purchased DiscoverX KINOMEscan

IKK-alpha = molecular target: T3, IKK-alpha (Homo sapiens, UniProt O15111); experiment: KINOMEscan; format: binding; details: read-out: %Ctrl @ 10000nM
T3 construct: purchased DiscoverX KINOMEscan

GRK1 = molecular target: T4, GRK1 (Homo sapiens, UniProt Q15835); experiment: KINOMEscan; format: binding; details: read-out: %Ctrl @ 10000nM
T4 construct: purchased DiscoverX KINOMEscan

MST1 = molecular target: T5, MST1 (Homo sapiens, UniProt Q13043); experiment: KINOMEscan; format: binding; details: read-out: %Ctrl @ 10000nM
T5 construct: purchased DiscoverX KINOMEscan

MAP3K4 = molecular target: T6, MAP3K4 (Homo sapiens, UniProt Q9Y6R4); experiment: KINOMEscan; format: binding; details: read-out: %Ctrl @ 10000nM
T6 construct: purchased DiscoverX KINOMEscan

FLT3(D835Y) = molecular target: T7, FLT3(D835Y) (Homo sapiens, UniProt P36888, D835Y); experiment: KINOMEscan; format: binding; details: read-out: %Ctrl @ 10000nM
T7 construct: purchased DiscoverX KINOMEscan

CAMK1G = molecular target: T8, CAMK1G (Homo sapiens, UniProt Q96NX5); experiment: KINOMEscan; format: binding; details: read-out: %Ctrl @ 10000nM
T8 construct: purchased DiscoverX KINOMEscan

KIT(A829P) = molecular target: T9, KIT(A829P) (Homo sapiens, UniProt P10721, A829P); experiment: KINOMEscan; format: binding; details: read-out: %Ctrl @ 10000nM
T9 construct: purchased DiscoverX KINOMEscan

EPHA7 = molecular target: T10, EPHA7 (Homo sapiens, UniProt Q15375); experiment: KINOMEscan; format: binding; details: read-out: %Ctrl @ 10000nM
T10 construct: purchased DiscoverX KINOMEscan

Plasma stability = format: in vitro ADME; details: rat, read-out: Plasma Stability T1/2 (converted)
[1] = molecular target: T11, RPS6KA4(Kin.Dom.2-C-terminal) (Homo sapiens, UniProt O75676); experiment: KINOMEscan; format: binding; details: read-out: %Ctrl @ 10000nM
T11 construct: RPS6KA4(Kin.Dom.2-C-terminal); purchased DiscoverX KINOMEscan

MERTK = molecular target: T12, MERTK (Homo sapiens, UniProt Q12866); experiment: KINOMEscan; format: binding; details: read-out: %Ctrl @ 10000nM
T12 construct: purchased DiscoverX KINOMEscan

LATS1 = molecular target: T13, LATS1 (Homo sapiens, UniProt O95835); experiment: KINOMEscan; format: binding; details: read-out: %Ctrl @ 10000nM
T13 construct: purchased DiscoverX KINOMEscan

DRAK2 = molecular target: T14, DRAK2 (Homo sapiens, UniProt O94768); experiment: KINOMEscan; format: binding; details: read-out: %Ctrl @ 10000nM
T14 construct: purchased DiscoverX KINOMEscan

MARK3 = molecular target: T15, MARK3 (Homo sapiens, UniProt P27448); experiment: KINOMEscan; format: binding; details: read-out: %Ctrl @ 10000nM
T15 construct: purchased DiscoverX KINOMEscan

RIPK4 = molecular target: T16, RIPK4 (Homo sapiens, UniProt P57078); experiment: KINOMEscan; format: binding; details: read-out: %Ctrl @ 10000nM
T16 construct: purchased DiscoverX KINOMEscan

ALK = molecular target: T17, ALK (Homo sapiens, UniProt Q9UM73); experiment: KINOMEscan; format: binding; details: read-out: %Ctrl @ 10000nM
T17 construct: purchased DiscoverX KINOMEscan

HEK293T cells = experiment: Intracellular CoA levels in transfected HEK293T cells; format: cell-based, human; details: 10 μM, 24 h
Protocol: Chloroform 1.5 ml, 1.2 ml water and 30 pmol of [^13C2]acetyl-CoA (Sigma) was added, and centrifuged at 2000×g for 10 min. The top layer was loaded on a 2-(2-pyridyl) ethyl solid phase extraction column which was equilibrated with 1 ml 50% methanol/2% acetic acid. The column was washed twice with 1 ml 50% methanol/2% acetic acid and 1 ml water. […] Samples were resuspended in 90% methanol containing 15 mM ammonium hydroxide.

DRAK1 = molecular target: T18, DRAK1 (Homo sapiens, UniProt Q9UEE5); experiment: KINOMEscan; format: binding; details: read-out: %Ctrl @ 10000nM
T18 construct: purchased DiscoverX KINOMEscan

C3A cells = experiment: Cell growth and macromolecular synthesis; format: cell-based, human; details: 10 μM
Protocol: For quantifying protein, DNA and lipid synthesis, C3A cells were first seeded at 2 × 10^6 in 60 mm-dishes and grown overnight in maintenance medium. Cells were washed once with phosphate buffered saline (PBS) and 2 ml of labeling medium plus radiochemical was added to start the 24 h incubation. […]. […] The labeling medium contained 0.1% dimethylsulfoxide (DMSO; control) or 10 μM compound in 0.1% DMSO. Cells were harvested, washed once with PBS and harvested either by trypsinization and vacuum filtration through 0.45 micron discs (Millipore, HAWP02500) for protein and DNA determinations, or by scraping and extraction in 100 μl H2O + 240 μl methanol/acetic acid 98:2 + 100 μl CHCl3 for lipid determination. Filters were washed three times with PBS, air dried and counted with a Liquid Scintillation Analyzer. Radioactivity was normalized to cell numbers and viability was >95%. Cellular lipid emulsions were separated by centrifugation and the lower phases were quantified by liquid scintillation counting and normalized to cell numbers.
(b) Pathway labeling of C3A cells treated with either DMSO or DMSO […]
[…]. labeled amino acid mixture, DNA synthesis was determined by measuring the incorporation of [3H]thymidine, and lipid synthesis was determined by labeling with [U-14C]glucose and measuring the incorporation of label into the lipid fraction as described in Methods. […]

PCTK3 = molecular target: T19, PCTK3 (Homo sapiens, UniProt Q07002); experiment: KINOMEscan; format: binding; details: read-out: %Ctrl @ 10000nM
T19 construct: purchased DiscoverX KINOMEscan

AMPK-alpha1 = molecular target: T20, AMPK-alpha1 (Homo sapiens, UniProt Q13131); experiment: KINOMEscan; format: binding; details: read-out: %Ctrl @ 10000nM
T20 construct: purchased DiscoverX KINOMEscan

[2] = molecular target: T21, ABL1(Q252H)-nonphosphorylated (Homo sapiens, UniProt P00519, Q252H); experiment: KINOMEscan; format: binding; details: read-out: %Ctrl @ 10000nM
T21 construct: purchased DiscoverX KINOMEscan

CASK = molecular target: T22, CASK (Homo sapiens, UniProt O14936); experiment: KINOMEscan; format: binding; details: read-out: %Ctrl @ 10000nM
T22 construct: purchased DiscoverX KINOMEscan

CDK9 = molecular target: T23, CDK9 (Homo sapiens, UniProt P50750); experiment: KINOMEscan; format: binding; details: read-out: %Ctrl @ 10000nM
T23 construct: purchased DiscoverX KINOMEscan

LOK = molecular target: T24, LOK (Homo sapiens, UniProt O94804); experiment: KINOMEscan; format: binding; details: read-out: %Ctrl @ 10000nM
T24 construct: purchased DiscoverX KINOMEscan

DCAMKL2 = molecular target: T25, DCAMKL2 (Homo sapiens, UniProt Q8N568); experiment: KINOMEscan; format: binding; details: read-out: %Ctrl @ 10000nM
T25 construct: purchased DiscoverX KINOMEscan

ASK2 = molecular target: T26, ASK2 (Homo sapiens, UniProt O95382); experiment: KINOMEscan; format: binding; details: read-out: %Ctrl @ 10000nM
T26 construct: purchased DiscoverX KINOMEscan

TBK1 = molecular target: T27, TBK1 (Homo sapiens, UniProt Q9UHD2); experiment: KINOMEscan; format: binding; details: read-out: %Ctrl @ 10000nM
T27 construct: purchased DiscoverX KINOMEscan

EGFR(L861Q) = molecular target: T28, EGFR(L861Q) (Homo sapiens, UniProt P00533, L861Q); experiment: KINOMEscan; format: binding; details: read-out: %Ctrl @ 10000nM
T28 construct: purchased DiscoverX KINOMEscan

PKMYT1 = molecular target: T29, PKMYT1 (Homo sapiens, UniProt Q99640); experiment: KINOMEscan; format: binding; details: read-out: %Ctrl @ 10000nM
T29 construct: purchased DiscoverX KINOMEscan

CAMK2A = molecular target: T30, CAMK2A (Homo sapiens, UniProt Q9UQM7); experiment: KINOMEscan; format: binding; details: read-out: %Ctrl @ 10000nM
T30 construct: purchased DiscoverX KINOMEscan

MST2 = molecular target: T31, MST2 (Homo sapiens, UniProt Q13188); experiment: KINOMEscan; format: binding; details: read-out: %Ctrl @ 10000nM
T31 construct: purchased DiscoverX KINOMEscan

ROCK1 = molecular target: T32, ROCK1 (Homo sapiens, UniProt Q13464); experiment: KINOMEscan; format: binding; details: read-out: %Ctrl @ 10000nM
T32 construct: purchased DiscoverX KINOMEscan

MARK2 = molecular target: T33, MARK2 (Homo sapiens, UniProt Q7KZI7); experiment: KINOMEscan; format: binding; details: read-out: %Ctrl @ 10000nM
T33 construct: purchased DiscoverX KINOMEscan
T33 sequence (Q7KZI7 whole entry): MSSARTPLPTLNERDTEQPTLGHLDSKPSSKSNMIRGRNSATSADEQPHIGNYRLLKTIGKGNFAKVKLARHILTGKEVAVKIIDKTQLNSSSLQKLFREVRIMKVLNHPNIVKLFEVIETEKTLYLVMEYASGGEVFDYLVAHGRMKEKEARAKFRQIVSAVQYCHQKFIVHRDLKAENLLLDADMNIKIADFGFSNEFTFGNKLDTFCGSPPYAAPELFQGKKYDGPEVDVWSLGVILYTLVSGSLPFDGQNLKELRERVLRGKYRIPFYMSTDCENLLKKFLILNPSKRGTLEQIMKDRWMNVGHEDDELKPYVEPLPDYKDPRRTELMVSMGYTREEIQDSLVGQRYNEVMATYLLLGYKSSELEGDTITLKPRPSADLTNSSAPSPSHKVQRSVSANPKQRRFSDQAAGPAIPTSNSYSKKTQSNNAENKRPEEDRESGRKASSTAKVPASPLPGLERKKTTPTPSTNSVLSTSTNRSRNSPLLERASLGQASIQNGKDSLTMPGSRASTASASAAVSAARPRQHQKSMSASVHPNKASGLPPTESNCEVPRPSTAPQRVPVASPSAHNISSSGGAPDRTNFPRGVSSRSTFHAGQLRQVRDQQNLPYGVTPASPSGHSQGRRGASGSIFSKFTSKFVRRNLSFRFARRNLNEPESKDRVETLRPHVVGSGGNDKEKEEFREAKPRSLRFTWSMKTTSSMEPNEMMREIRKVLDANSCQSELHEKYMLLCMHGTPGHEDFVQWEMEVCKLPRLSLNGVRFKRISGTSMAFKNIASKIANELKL

T10 sequence (Q15375 28-998): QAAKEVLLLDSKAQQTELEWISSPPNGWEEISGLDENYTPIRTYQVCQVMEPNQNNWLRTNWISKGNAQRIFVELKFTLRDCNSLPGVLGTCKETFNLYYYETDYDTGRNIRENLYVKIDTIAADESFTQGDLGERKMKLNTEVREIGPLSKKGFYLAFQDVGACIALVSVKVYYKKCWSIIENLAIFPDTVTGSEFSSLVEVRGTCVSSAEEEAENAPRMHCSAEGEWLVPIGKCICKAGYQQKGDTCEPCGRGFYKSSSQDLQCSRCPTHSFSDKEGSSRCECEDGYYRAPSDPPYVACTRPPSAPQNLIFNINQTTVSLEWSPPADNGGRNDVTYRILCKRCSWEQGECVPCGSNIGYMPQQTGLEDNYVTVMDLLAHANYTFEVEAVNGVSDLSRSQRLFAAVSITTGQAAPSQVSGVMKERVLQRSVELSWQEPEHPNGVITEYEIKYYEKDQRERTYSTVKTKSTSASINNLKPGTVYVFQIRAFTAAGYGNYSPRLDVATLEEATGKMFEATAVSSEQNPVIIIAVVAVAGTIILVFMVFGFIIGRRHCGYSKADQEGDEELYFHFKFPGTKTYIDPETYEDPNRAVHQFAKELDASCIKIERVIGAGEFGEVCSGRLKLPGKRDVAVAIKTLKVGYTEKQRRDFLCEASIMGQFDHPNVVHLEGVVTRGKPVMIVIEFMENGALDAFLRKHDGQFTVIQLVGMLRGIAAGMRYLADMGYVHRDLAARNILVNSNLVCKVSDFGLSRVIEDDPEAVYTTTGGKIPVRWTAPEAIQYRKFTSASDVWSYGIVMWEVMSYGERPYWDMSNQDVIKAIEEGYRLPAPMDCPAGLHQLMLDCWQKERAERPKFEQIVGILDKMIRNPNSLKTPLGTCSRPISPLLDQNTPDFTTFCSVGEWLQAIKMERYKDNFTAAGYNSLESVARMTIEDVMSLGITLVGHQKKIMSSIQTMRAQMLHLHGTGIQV
T13 sequence (O95835 whole entry): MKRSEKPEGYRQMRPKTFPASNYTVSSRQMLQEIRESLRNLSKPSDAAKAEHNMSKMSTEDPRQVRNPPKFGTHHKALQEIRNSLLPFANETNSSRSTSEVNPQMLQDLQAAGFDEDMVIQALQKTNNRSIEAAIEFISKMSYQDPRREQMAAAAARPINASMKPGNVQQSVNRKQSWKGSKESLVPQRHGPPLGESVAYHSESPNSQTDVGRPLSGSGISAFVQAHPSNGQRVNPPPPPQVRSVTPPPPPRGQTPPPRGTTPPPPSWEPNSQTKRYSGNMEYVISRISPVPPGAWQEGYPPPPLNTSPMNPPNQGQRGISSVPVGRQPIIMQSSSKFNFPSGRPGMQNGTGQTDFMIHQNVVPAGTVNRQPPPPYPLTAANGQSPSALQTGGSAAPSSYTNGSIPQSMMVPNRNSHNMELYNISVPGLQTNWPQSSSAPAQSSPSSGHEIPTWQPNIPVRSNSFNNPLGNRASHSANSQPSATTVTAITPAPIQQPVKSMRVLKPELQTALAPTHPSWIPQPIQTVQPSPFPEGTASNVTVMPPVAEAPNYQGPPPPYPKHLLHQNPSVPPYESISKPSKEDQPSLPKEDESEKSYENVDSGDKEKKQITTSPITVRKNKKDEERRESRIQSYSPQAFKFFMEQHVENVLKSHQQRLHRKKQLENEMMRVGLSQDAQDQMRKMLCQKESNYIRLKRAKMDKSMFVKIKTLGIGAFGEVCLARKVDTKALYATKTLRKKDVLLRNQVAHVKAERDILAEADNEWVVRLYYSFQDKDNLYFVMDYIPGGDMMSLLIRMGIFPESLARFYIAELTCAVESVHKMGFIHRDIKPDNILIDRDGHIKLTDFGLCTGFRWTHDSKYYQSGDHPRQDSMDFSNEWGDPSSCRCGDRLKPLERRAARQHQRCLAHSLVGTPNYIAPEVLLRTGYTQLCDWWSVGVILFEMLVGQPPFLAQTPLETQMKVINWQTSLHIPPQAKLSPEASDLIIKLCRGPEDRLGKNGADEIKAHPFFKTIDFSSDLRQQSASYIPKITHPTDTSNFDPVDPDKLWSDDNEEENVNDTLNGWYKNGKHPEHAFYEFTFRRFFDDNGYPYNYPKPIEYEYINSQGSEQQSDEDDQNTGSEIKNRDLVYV
T2 sequence (P37023 22-503): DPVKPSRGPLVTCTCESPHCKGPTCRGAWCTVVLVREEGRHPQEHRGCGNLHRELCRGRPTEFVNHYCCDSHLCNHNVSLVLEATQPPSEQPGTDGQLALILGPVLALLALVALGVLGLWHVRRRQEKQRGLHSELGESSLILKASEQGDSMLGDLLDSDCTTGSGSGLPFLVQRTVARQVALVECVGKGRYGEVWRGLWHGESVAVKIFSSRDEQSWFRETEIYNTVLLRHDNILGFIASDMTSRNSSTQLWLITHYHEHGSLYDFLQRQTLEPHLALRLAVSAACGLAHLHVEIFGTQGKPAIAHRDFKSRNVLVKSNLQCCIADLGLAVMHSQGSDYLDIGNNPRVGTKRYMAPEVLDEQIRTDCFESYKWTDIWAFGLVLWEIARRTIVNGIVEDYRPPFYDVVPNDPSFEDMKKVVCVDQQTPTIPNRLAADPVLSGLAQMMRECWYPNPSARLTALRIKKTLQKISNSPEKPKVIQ
T25 sequence (Q8N568 whole entry): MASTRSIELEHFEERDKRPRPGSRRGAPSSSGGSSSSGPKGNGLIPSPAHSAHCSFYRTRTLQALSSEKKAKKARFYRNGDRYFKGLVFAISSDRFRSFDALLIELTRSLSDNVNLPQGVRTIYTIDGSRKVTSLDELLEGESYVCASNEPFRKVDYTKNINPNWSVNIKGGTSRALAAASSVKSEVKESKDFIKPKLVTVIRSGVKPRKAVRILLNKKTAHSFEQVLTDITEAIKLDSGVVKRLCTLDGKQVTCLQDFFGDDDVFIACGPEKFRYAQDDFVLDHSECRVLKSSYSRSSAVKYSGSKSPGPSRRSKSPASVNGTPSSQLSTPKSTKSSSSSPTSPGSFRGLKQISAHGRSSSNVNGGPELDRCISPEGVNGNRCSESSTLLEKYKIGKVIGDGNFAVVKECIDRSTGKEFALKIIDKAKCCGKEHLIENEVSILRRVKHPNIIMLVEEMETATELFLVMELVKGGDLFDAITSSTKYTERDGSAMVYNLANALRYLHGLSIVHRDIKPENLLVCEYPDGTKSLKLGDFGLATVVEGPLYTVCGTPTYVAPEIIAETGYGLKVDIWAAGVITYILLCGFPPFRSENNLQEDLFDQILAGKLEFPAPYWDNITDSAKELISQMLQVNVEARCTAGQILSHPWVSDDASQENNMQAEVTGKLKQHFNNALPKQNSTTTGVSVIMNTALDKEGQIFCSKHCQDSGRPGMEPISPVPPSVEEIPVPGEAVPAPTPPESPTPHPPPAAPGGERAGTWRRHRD
T30 sequence (Q9UQM7 whole entry): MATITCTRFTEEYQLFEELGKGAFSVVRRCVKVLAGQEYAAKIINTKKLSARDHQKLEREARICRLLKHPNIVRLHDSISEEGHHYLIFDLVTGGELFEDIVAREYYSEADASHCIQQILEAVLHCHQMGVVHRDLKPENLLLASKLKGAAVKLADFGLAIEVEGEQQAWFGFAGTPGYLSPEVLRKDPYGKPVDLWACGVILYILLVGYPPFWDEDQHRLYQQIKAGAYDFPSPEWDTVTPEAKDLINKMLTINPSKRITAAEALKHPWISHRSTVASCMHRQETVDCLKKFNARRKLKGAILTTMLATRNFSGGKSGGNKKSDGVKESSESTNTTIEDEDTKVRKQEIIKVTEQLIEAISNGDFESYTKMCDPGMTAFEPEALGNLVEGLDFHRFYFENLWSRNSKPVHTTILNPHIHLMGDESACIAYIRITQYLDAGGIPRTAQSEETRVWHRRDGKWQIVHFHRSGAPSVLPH
T18 sequence (Q9UEE5 whole entry): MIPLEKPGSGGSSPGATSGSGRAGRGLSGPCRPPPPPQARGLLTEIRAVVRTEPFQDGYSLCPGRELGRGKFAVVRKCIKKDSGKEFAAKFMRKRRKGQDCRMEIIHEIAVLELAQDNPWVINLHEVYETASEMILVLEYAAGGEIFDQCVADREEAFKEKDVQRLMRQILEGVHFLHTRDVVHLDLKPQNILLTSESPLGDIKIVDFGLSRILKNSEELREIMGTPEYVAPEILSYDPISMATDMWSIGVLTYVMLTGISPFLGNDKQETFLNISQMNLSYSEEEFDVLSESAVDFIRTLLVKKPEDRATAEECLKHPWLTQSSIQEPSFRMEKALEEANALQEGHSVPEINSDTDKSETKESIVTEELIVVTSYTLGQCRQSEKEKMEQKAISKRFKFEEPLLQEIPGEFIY

CC(C)c1ccc(CC(=O)N2CCN(c3ccc(C#N)nn3)CC2)cc1 [PZ-2891, 6-(4-(2-(4-isopropylphenyl)acetyl)piperazin-1-yl)pyridazine-3-carbonitrile]
remaining binding at 10 µM (DLK): 100%
remaining binding at 10 µM (ACVRL1): 100%
remaining binding at 10 µM (IKK-alpha): 100%
remaining binding at 10 µM (GRK1): 72%
remaining binding at 10 µM (MST1): 86%
remaining binding at 10 µM (MAP3K4): 93%
remaining binding at 10 µM (FLT3(D835Y)): 89%
remaining binding at 10 µM (CAMK1G): 83%
remaining binding at 10 µM (KIT(A829P)): 91%
remaining binding at 10 µM (EPHA7): 92%
half-life (Plasma stability): > 50 h
remaining binding at 10 µM [1]: 67%
remaining binding at 10 µM (MERTK): 95%
remaining binding at 10 µM (LATS1): 86%
remaining binding at 10 µM (DRAK2): 95%
remaining binding at 10 µM (MARK3): 84%
remaining binding at 10 µM (RIPK4): 81%
remaining binding at 10 µM (ALK): 100%
intracellular CoA, control (empty vector) HEK293T cells (HEK293T cells): significantly increased the levels of intracellular CoA
remaining binding at 10 µM (DRAK1): 99%
cell viability (cell growth, synthesis of DNA, protein and lipid) (C3A cells): no differences between control and PZ-2891; also recorded: did not impact cell viability
remaining binding at 10 µM (PCTK3): 92%
remaining binding at 10 µM (AMPK-alpha1): 92%
remaining binding at 10 µM [2]: 97%
remaining binding at 10 µM (CASK): 85%
remaining binding at 10 µM (CDK9): 98%
remaining binding at 10 µM (LOK): 86%
remaining binding at 10 µM (DCAMKL2): 89%
remaining binding at 10 µM (ASK2): 83%
remaining binding at 10 µM (TBK1): 60%
remaining binding at 10 µM (EGFR(L861Q)): 100%
remaining binding at 10 µM (PKMYT1): 100%
remaining binding at 10 µM (CAMK2A): 98%
remaining binding at 10 µM (MST2): 92%
remaining binding at 10 µM (ROCK1): 100%
remaining binding at 10 µM (MARK2): 70%
